In the supplement of paper PMC9912026:

Tested on: A375_NRAS_Q61K_DOXind
Test: pERK immunofluorescence relative to uninduced (no doxycycline), no-drug control; higher = more ERK phosphorylation (less pathway inhibition)
Conditions: drug treatment time 24 h, doxycycline pre-induction time 24 h, vemurafenib background 0 µM
Procedure: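 pERK was measured by immunofluorescence with FLAG-negative cells excluded. Averages of 2 technical replicates.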

CCCS(=O)(=O)Nc1ccc(F)c(C(=O)c2c[nH]c3ncc(-c4ccc(Cl)cc4)cc23)c1F [Vemurafenib] + O=C(c1ccc(F)c(F)c1Nc1ccc(I)cc1F)N1CC(O)([C@@H]2CCCCN2)C1 [Cobimetinib]
pERK immunofluorescence
Conditions | drug B concentration 0 µM | drug B concentration 0.0001 µM | drug B concentration 0.0003162 µM | drug B concentration 0.001 µM | drug B concentration 0.00316228 µM | drug B concentration 0.01 µM | drug B concentration 0.0316228 µM | drug B concentration 0.1 µM | drug B concentration 0.316228 µM | drug B concentration 1 µM
drug A concentration 0 µM, doxycycline 0 ng/mL | – | 0.771 | 0.877 | 0.692 | 0.269 | 0.0826 | 0.0415 | 0.0295 | 0.0213 | 0.0214
drug A concentration 0 µM, doxycycline 1000 ng/mL | – | 1.26 | 1.36 | 1.23 | 1.11 | 1.03 | 0.769 | 0.29 | 0.0675 | 0.0264
drug A concentration 0.000316 µM, doxycycline 0 ng/mL | 0.894 | 0.847 | 0.89 | 0.663 | 0.253 | 0.078 | 0.0417 | 0.0283 | 0.023 | 0.0216
drug A concentration 0.000316 µM, doxycycline 1000 ng/mL | 1.23 | 1.24 | 1.3 | 1.22 | 1.11 | 1.06 | 0.763 | 0.322 | 0.073 | 0.0271
drug A concentration 0.001 µM, doxycycline 0 ng/mL | 0.854 | 0.807 | 0.827 | 0.652 | 0.277 | 0.0707 | 0.0373 | 0.0262 | 0.0201 | 0.0201
drug A concentration 0.001 µM, doxycycline 1000 ng/mL | 1.15 | 1.21 | 1.26 | 1.29 | 1.15 | 1.08 | 0.761 | 0.326 | 0.0778 | 0.0269
drug A concentration 0.00316 µM, doxycycline 0 ng/mL | 0.761 | 0.816 | 0.887 | 0.555 | 0.229 | 0.0664 | 0.0382 | 0.0255 | 0.0206 | 0.0196
drug A concentration 0.00316 µM, doxycycline 1000 ng/mL | 1.12 | 1.17 | 1.31 | 1.25 | 1.13 | 1.01 | 0.763 | 0.311 | 0.0715 | 0.0264
drug A concentration 0.01 µM, doxycycline 0 ng/mL | 0.697 | 0.719 | 0.752 | 0.525 | 0.207 | 0.0636 | 0.0366 | 0.0258 | 0.0201 | 0.0203
drug A concentration 0.01 µM, doxycycline 1000 ng/mL | 1.16 | 1.21 | 1.28 | 1.31 | 1.21 | 1.02 | 0.741 | 0.32 | 0.0751 | 0.0284
drug A concentration 0.0316 µM, doxycycline 0 ng/mL | 0.485 | 0.57 | 0.578 | 0.357 | 0.142 | 0.0532 | 0.0338 | 0.0248 | 0.0205 | 0.0197
drug A concentration 0.0316 µM, doxycycline 1000 ng/mL | 1.08 | 1.11 | 1.22 | 1.27 | 1.05 | 0.964 | 0.683 | 0.254 | 0.0677 | 0.0258
drug A concentration 0.1 µM, doxycycline 0 ng/mL | 0.316 | 0.286 | 0.274 | 0.161 | 0.0758 | 0.0428 | 0.0306 | 0.0226 | 0.0207 | 0.0198
drug A concentration 0.1 µM, doxycycline 1000 ng/mL | 1.2 | 1.18 | 1.31 | 1.21 | 1.12 | 1.05 | 0.766 | 0.294 | 0.0731 | 0.0266
drug A concentration 0.316228 µM, doxycycline 0 ng/mL | 0.107 | 0.0916 | 0.1 | 0.0715 | 0.0458 | 0.0352 | 0.0271 | 0.0216 | 0.0197 | 0.019
drug A concentration 0.316228 µM, doxycycline 1000 ng/mL | 1.17 | 1.21 | 1.26 | 1.25 | 1.15 | 1.08 | 0.736 | 0.279 | 0.069 | 0.0251
drug A concentration 1 µM, doxycycline 0 ng/mL | 0.0542 | 0.0554 | 0.0566 | 0.0507 | 0.0389 | 0.0323 | 0.0252 | 0.0202 | 0.019 | 0.0186
drug A concentration 1 µM, doxycycline 1000 ng/mL | 1.12 | 1.21 | 1.32 | 1.26 | 1.15 | 1.06 | 0.675 | 0.212 | 0.0608 | 0.0248
drug A concentration 3.16 µM, doxycycline 0 ng/mL | 0.0469 | 0.0457 | 0.0485 | 0.044 | 0.038 | 0.0293 | 0.0233 | 0.02 | 0.0191 | 0.0188
drug A concentration 3.16 µM, doxycycline 1000 ng/mL | 1.07 | 1.14 | 1.22 | 1.27 | 1.12 | 0.941 | 0.478 | 0.129 | 0.0468 | 0.0219
drug A concentration 10 µM, doxycycline 0 ng/mL | 0.0377 | 0.0388 | 0.0357 | 0.0351 | 0.0307 | 0.0237 | 0.0219 | 0.0199 | 0.019 | 0.0193
drug A concentration 10 µM, doxycycline 1000 ng/mL | 0.905 | 1.01 | 1.04 | 1.02 | 0.868 | 0.553 | 0.145 | 0.0465 | 0.0237 | 0.0194
